According to paper PMC4473678, “Swedish mutant APP-based BACE1 binding site peptide reduces APP β-cleavage and cerebral Aβ levels in Alzheimer’s mice” (Scientific Reports, 2015):
Entries after “also recorded” stand apart in the source; their conditions may differ.

Columns and labels:
WT mice [1] = assay: Radial arm water maze (RAWM), WT mice; format: in vivo, mouse; settings: 100 nmol/kg i.p. daily, 8 weeks, n = 10 per treatment
5XFAD mice [2] = assay: Rotarod test, 5XFAD mice; format: in vivo, mouse; settings: 100 nmol/kg i.p. daily, 8 weeks, n = 10 per treatment
Protocol: (§1) Transgenic AD mice [5XFAD; B6SJL-Tg(APPSwFlLon,PSEN1*M146L*L286V) 6799Vas/Mmjax] at 2.5 months of age were obtained from the Jackson Laboratory (Bar Harbor, ME) and housed and maintained in the Animal Facility of College of Medicine at University of South Florida (USF). The mice at 3.5 months of age were treated with TAT-APPsweBBP, TAT peptide (100 nmol/kg in 100 μL PBS) or PBS (100 μL) daily by intraperitioneal injection (i.p.) for eight consecutive weeks. The mice were subjected to behavioral testing after 8-week treatment and then euthanized for immunohistochemical, WB and ELISA analyses. Animals were housed and maintained at USF and all experiments were in compliance with protocols approved by USF Institutional Animal Care and Use Committee. All methods were performed in accordance with relevant guidelines and regulations.
The rotarod task was also performed to exclude the possibility that positive effects of any treatment in RAWM test are due to improvements in sensorimotor ability. Mice were positioned on the rod (diameter 3.6 cm) of the equipment (Rotarod 7650 accelerating model; Ugo Basile, Biological Research Apparatus, Varese, Italy), which was initially set at 1.0 rpm. The rod was then allowed to steadily accelerate up to 40.0 rpm over a 3-min session and evaluation was made by monitoring latency to fall.

[3] = test system: recombinant BACE1 protein; assay: Immunoprecipitation/WB of peptide-BACE1 binding, cell-free; settings: 10 μg biotin-labeled peptide with 10 μL recombinant BACE1 (1.0 U/mL), 4 h, 37 °C; anti-BACE1 IP/anti-biotin WB and reverse
Protocol: In order to confirm that APPsweBBP containing the β-cleavage site could bind to and be consequently proteolyzed by BACE1, 10 μg of biotin-labeled TAT-APPsweBBP was incubated with or without 10 μL of recombinant BACE1 protein (1.0 U/mL) in BACE1 reaction buffer for 4 h at 37 °C and then subjected to WB analysis as described previously. In addition, we performed immunoprecipitation (IP) and WB analyses of this mixture with anti-BACE1 and anti-biotin antibodies to confirm that TAT-APPsweBBP, but not TAT, specifically binds to BACE1.

Akt and MBP = assay: WB of myelin signaling (Akt, MBP) in brain homogenates, 5XFAD mice; format: in vivo, mouse; settings: TAT-APPsweBBP, TAT and PBS groups compared
Protocol: as §1
WB analysis was performed as previously described. Briefly, the proteins from the various cell-free suspensions, cell lysates and brain homogenates were electrophoretically separated using 10% bicine/tris gel (8 M urea) for proteins less than 5 kD or 10% tricine/tris gels for larger proteins. Electrophoresed proteins were transferred to polyvinylidene difluoride membranes (Bio-Rad, Richmond, CA), washed and blocked for 2 h at room temperature in Tris-buffered saline containing 5% (w/v) nonfat dry milk (TBS/NFDM). […]

5XFAD mice [4] = assay: β-amyloid immunohistochemistry (4G8), 5XFAD mice; format: in vivo, mouse; settings: 100 nmol/kg i.p. daily, 8 weeks, RSC, EC and H regions, n = 10, 5 female/5 male
Protocol: as §1
For paraffin brain tissues, we sectioned five coronal sections per region with a 100-μm interval and a thickness of 5-μm for retrosplenial cortex (RSC), entorhinal cortex (EC), and hippocampus (H), located at bregma −2.92 to −3.64 mm. […] Images were acquired as digitized tagged-image format files (to retain maximum resolution) using a BX60 microscope with an attached CCD camera system (DP-70, Olympus, Tokyo, Japan), and digital images were routed into a Windows PC for quantitative analyses using SimplePCI software (Hamamatsu Photonics, Hamamatsu, Shizuoka, Japan). […]

WT mice [5] = assay: Rotarod test, WT mice; format: in vivo, mouse; settings: 100 nmol/kg i.p. daily, 8 weeks, n = 10 per treatment
recombinant BACE1 = assay: BACE1 activity (FRET) assay, cell-free; format: biochemical; settings: for % of Inhibition of BACE1: FRET substrate Rh-EVNLDAEFK-quencher, dark, ex 545/em 585 nm, mean ± SD
Protocol: The BACE1 inhibiting activity of APP-based BACE1 site binding peptides were determined using a fluorescence resonance energy transfer (FRET) assay (Pan Vera Co., Madison, WI), which employs a recombinant baculovirus-expressed BACE1 and a specific substrate (Rh-[…]-quencher) that is based on the APPswe mutation. This specific peptide substrate becomes highly fluorescent upon enzymatic cleavage. […] Then, 10 μL of BACE1 stop buffer (2.5 M sodium acetate) was added to the mixture. Fluorescence was read using a fluorometer, with excitation at 545 nm and emission at 585 nm.

BACE1 = settings: cited from earlier work
[6] = biological target: recombinant BACE1 protein (β-site APP cleaving enzyme 1) (UniProt P56817)
treated patients = settings: Phase III; cited from earlier work
Text: Presenilin 1 and 2 (PS1/PS2), two integral membrane proteins found in the endoplasmic reticulum and Golgi apparatus, are the major enzymatic targets for γ-secretase inhibition for the treatment of AD[5]. However, apart from their roles in AD, PS1/PS2 also controls the Notch signaling pathway responsible for cell proliferation and differentiation during embryonic development. PS1/PS2-null mice have massive neuronal loss, skeletal defects, underdeveloped subventricular areas and severe hemorrhages, and only a few types of PS1/PS2-null mouse models survive after birth. Other subst ...

[7] = phase II, suspended June 2013; cited from earlier work
Text: Although these BACE1-null abnormalities are relatively mild, they are complex neurological phenotypes that raise a concern that complete inhibition or entire absence of BACE1 function may not be fre ...

brain of 5XFAD mice = settings: mouse, in vivo
Protocol: 5XFAD mice at 2 months of age (n = 5, female) were treated intraperitoneally with biotin-labeled TAT-APPsweBBP or APPsweBBP (100 nmol/kg) daily for 5 days and then euthanized 4 h after the last injection. Brain tissues were removed, sectioned and stained with anti-BACE1 and anti-biotin antibodies.
Fixed cell cultures and brain sections were stained with indicated antibodies and then treated with donkey anti-mouse IgG conjugated with Alexa Fluor 488 (1:200) or goat anti-rabbit IgG conjugated with Alexa Fluor 594 (1:200; Invitrogen, Carlsbad, CA). The slides were then washed, mounted with DAPI medium (Vector Laboratories, Burlingame, CA) and visualized with an Olympus FV1000 confocal microscope (Tokyo, Japan).

[8] = peptide final concentration 20 μM, 90 min, room temperature

Chain of recombinant BACE1 protein (β-site APP cleaving enzyme 1) (P56817 46-501): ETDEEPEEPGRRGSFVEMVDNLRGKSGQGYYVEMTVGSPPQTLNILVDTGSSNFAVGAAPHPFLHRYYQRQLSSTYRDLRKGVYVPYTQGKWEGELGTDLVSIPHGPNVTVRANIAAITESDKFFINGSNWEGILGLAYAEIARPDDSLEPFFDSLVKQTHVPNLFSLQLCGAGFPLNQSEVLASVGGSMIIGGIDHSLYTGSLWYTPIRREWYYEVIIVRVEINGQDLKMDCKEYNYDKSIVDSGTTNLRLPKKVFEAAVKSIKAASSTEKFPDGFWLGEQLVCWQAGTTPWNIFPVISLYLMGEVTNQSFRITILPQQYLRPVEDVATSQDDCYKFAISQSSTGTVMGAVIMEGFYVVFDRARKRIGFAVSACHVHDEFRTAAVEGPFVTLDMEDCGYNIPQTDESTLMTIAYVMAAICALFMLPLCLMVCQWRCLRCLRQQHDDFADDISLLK

In the case of “YGRKKRRQRRR [TAT (YGRKKRRQRRR), reference compound]”, the RAWM entry-arm errors (WT mice [1]) is reported as “no difference among the various treatment groups”, the “rotarod latency to fall / motor performance” value (5XFAD mice [2]) is reported as “no differences between treatment groups on each day” and the “binding to BACE1 (co-immunoprecipitation)” value [3] is reported as “but not TAT peptide, binds to BACE1”. For the same molecule, the “Akt (total/phosphorylated) in brain homogenates” value (Akt and MBP) was “differ between TAT-APPsweBBP-, TAT- and PBS-treated 5XFAD mice”, the “myelin basic protein (MBP) expression in brain homogenates” value (Akt and MBP) was “differ between TAT-APPsweBBP-, TAT- and PBS-treated 5XFAD mice” and the “β-amyloid plaques / 4G8 immunoreactive area” value (5XFAD mice [4]) was “no significant difference between TAT peptide and PBS groups”. The “rotarod latency to fall” value (WT mice [5]) was “no differences between treatment groups on each day” and the “% of Inhibition of BACE1” value (recombinant BACE1; [8]) was 3.32 ± 0.02%.
In the case of EVNLA*AEF [OM99-2], the BBB crossing (BACE1) is given as “too large to cross the BBB”, the potency (BACE1) is given as “high level of potency” and the stability (BACE1) is given as “not stable enough for use in therapeutic trials”.
“biotin-labeled TAT-APPsweBBP (human Swedish mutant APP BACE1 binding site peptide conjugated to the HIV-1 TAT protein-transduction domain) (from UniProt P05067 665-676)” showed a percent inhibition of BACE1 activity in a cell-free FRET assay (substrate Rh-…-quencher), peptide at 0.05, 0.5, 5 and 20 μM [6] greater than 90%.
For CC(C)[C@H](O)C(=O)N[C@@H](C)C(=O)N[C@@H]1C(=O)N(C)CCc2ccccc21 [semagacestat], the “activities of daily living and cognition” value (treated patients) is listed as “activities of daily living and cognition even worsened in the treated patients”.
In the case of “APPwt BACE1 binding site peptide (APPwtBBP)”, the percent inhibition of BACE1 activity in a cell-free FRET assay (substrate Rh-…-quencher), peptide at 20 μM [6] is reported as 16.2%.
With EVKMDAEFR the “% of Inhibition of BACE1” value (recombinant BACE1; [8]) was 4.89 ± 0.06%.
In the case of EVNLDAEFR, the “% of Inhibition of BACE1” value (recombinant BACE1; [8]) is reported as 14.32 ± 0.04%.
For NC1=N[C@@]2(c3cc(NC(=O)c4ccc(F)cn4)ccc3F)COC[C@H]2CS1 [LY2886721], the liver toxicity [7] is listed as “possible liver toxicity”.
“APPswe BACE1 binding site peptide (APPsweBBP) (from UniProt P05067 665-676)” showed a percent inhibition of BACE1 activity in a cell-free FRET assay (substrate Rh-…-quencher), peptide at 20 μM [6] of 38.4%.
In the case of “EISEVNLDAEFR [12-AA-residue fragment derived from human APPswe, containing APPswe β-cleavage sites (Glu665–Arg676 of APPswe770 isoform)]”, the “BBB penetration (Fig. S4 legend)” value (brain of 5XFAD mice) is reported as “stopped at the capillary lumen”, the “biotin distribution, 5XFAD versus WT control mice” value (brain of 5XFAD mice; ip) is reported as “No noticeable differences in biotin distribution” and the “BACE1 inhibition (result in words)” value (recombinant BACE1; FRET assay, APPsweBBP or TAT-APPsweBBP at 0.05, 0.5, 5 and 20 μM (Fig. 1)) is reported as “strongly inhibits BACE1 activity; also recorded: competitively inhibits the cleavage of commercial BACE1 substrate; also recorded: most effective BACE1 inhibitor; also recorded: much greater”. The “percentage inhibition of BACE1” value (recombinant BACE1; FRET assay, peptide final concentration 20 μM, 90 min, room temperature) was ~ 40% and the “% of Inhibition of BACE1” value (recombinant BACE1; [8]) was 38.43 ± 1.01%.
In the case of “TAT-APPwtBBP (APPwt BACE1 binding site peptide fused with TAT)”, the percent inhibition of BACE1 activity in a cell-free FRET assay (substrate Rh-…-quencher), peptide at 20 μM [6] is reported as 21%.
In the case of “YGRKKRRQRRREISEVKMDAEFR [APPwtBBP fused with TAT]”, the “% of Inhibition of BACE1” value (recombinant BACE1; [8]) is reported as 21.01 ± 1.42%.
With EISEVKMDAEFR the “% of Inhibition of BACE1” value (recombinant BACE1; [8]) was 16.23 ± 0.29%.
